Measured values: patent US20250230193A1, “CYCLIC COMPOUND HAVING SELECTIVE KRAS INHIBITORY EFFECT ON HRAS AND NRAS” (CHUGAI SEIYAKU KABUSHIKI KAISHA, priority 2022, published 2025)
Where a SMILES comes first, the peptide text is derived from it. Bridges are numbered along the chain shown (N, C = ends). [ ]: non-standard residue; d: D form. The star is where a group is joined. hPhe(3-Cl-4-CF3) = N[C@@H](CCc1ccc(C(F)(F)F)c(Cl)c1)C(=O)O; NPrPhe(4-CF3) = CCCN[C@@H](Cc1ccc(C(F)(F)F)cc1)C(=O)O; NMeGly(cPent) = CN[C@H](C(=O)O)C1CCCC1; Pro(4,4-Me2) = CC1(C)CN[C@H](C(=O)O)C1; Pro(4S-Me) = C[C@@H]1CN[C@H](C(=O)O)C1; NMeD = CN[C@@H](CC(=O)O)C(=O)O; NMeL = CN[C@@H](CC(C)C)C(=O)O; Morpholide = C1CN(*)CCO1; NMeA = CN[C@@H](C)C(=O)O; Ac5c = NC1(C(=O)O)CCCC1; Aze = O=C(O)[C@@H]1CCN1; NEtG = CCNCC(=O)O; Sar = CNCC(=O)O

Tests used:
[1] = target: GDP-bound NRAS wild-type protein (Homo sapiens, UniProt P01111); experiment: Binding to NRAS by surface plasmon resonance (SPR), Single Cycle Kinetics; conditions: KD ratio NRAS/KRAS, SPR
[2] = target: GDP-bound HRAS wild-type protein (Homo sapiens, UniProt P01112); experiment: Binding to HRAS by surface plasmon resonance (SPR), Single Cycle Kinetics; conditions: KD ratio HRAS/KRAS, SPR
Chain of GDP-bound HRAS wild-type protein (P01112 whole entry): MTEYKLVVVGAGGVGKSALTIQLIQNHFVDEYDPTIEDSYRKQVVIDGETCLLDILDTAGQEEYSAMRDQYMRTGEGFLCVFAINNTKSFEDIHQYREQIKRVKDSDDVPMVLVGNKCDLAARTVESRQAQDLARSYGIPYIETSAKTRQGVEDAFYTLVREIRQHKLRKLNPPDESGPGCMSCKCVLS

Chain of GDP-bound NRAS wild-type protein (P01111 whole entry): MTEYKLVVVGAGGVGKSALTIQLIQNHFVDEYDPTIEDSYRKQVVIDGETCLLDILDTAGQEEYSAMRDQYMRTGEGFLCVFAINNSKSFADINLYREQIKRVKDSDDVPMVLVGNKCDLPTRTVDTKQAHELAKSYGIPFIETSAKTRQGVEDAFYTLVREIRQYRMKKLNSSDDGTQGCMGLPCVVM

| Compound | NRAS/KRAS (ratio of KD value with respect to GDP-bound NRAS wild-type protein to KD value with respect to KRAS) [1] | HRAS/KRAS (ratio of KD value with respect to GDP-bound HRAS wild-type protein to KD value with respect to KRAS) [2] |
| --- | --- | --- |
| CCCN1C(=O)CN(C)C(=O)CN(C)C(=O)[C@H]([C@@H](C)CC)NC(=O)[C@H](CC(C)C)N(C)C(=O)C[C@@H](C(=O)N2CCOCC2)N(C)C(=O)[C@H](C2CCCC2)N(C)C(=O)C2(CCCC2)NC(=O)[C@@H]2C[C@H](C)CN2C(=O)[C@H](CCc2ccc(C(F)(F)F)c(Cl)c2)NC(=O)CN(C)C(=O)[C@@H]1Cc1ccc(C(F)(F)F)cc1 [PP0447] ([NMeL]I[Sar][Sar][NPrPhe(4-CF3)][Sar][hPhe(3-Cl-4-CF3)][Pro(4S-Me)][Ac5c][NMeGly(cPent)][NMeD]-Morpholide; lactam N-11) | B (a compound having 3 or more and less than 10 is denoted as B) | C (A compound having a KD ratio of 0.1 or more and less than 3 is denoted as C) |
| CCCN1C(=O)CN(C)C(=O)CNC(=O)[C@H]([C@@H](C)CC)NC(=O)[C@H](CC(C)C)N(C)C(=O)C[C@@H](C(=O)N2CCOCC2)N(C)C(=O)[C@H](C2CCCC2)N(C)C(=O)C2(CCCC2)NC(=O)[C@@H]2CC(C)(C)CN2C(=O)[C@H](CCc2ccc(C(F)(F)F)c(Cl)c2)NC(=O)CN(C)C(=O)[C@@H]1Cc1ccc(C(F)(F)F)cc1 [PP0448] ([NMeL]IG[Sar][NPrPhe(4-CF3)][Sar][hPhe(3-Cl-4-CF3)][Pro(4,4-Me2)][Ac5c][NMeGly(cPent)][NMeD]-Morpholide; lactam N-11) | B (a compound having 3 or more and less than 10 is denoted as B) | C (A compound having a KD ratio of 0.1 or more and less than 3 is denoted as C) |
| CCCN1C(=O)CN(C)C(=O)CNC(=O)[C@H]([C@@H](C)CC)NC(=O)[C@H](CC(C)C)N(C)C(=O)C[C@@H](C(=O)N2CCOCC2)N(C)C(=O)[C@H](C2CCCC2)N(C)C(=O)C2(CCCC2)NC(=O)[C@@H]2C[C@H](C)CN2C(=O)[C@H](CCc2ccc(C(F)(F)F)c(Cl)c2)NC(=O)CN(C)C(=O)[C@@H]1Cc1ccc(C(F)(F)F)cc1 [PP0449] ([NMeL]IG[Sar][NPrPhe(4-CF3)][Sar][hPhe(3-Cl-4-CF3)][Pro(4S-Me)][Ac5c][NMeGly(cPent)][NMeD]-Morpholide; lactam N-11) | C (A compound having a KD ratio of 0.1 or more and less than 3 is denoted as C) | C (A compound having a KD ratio of 0.1 or more and less than 3 is denoted as C) |
| CCCN1C(=O)CN(C)C(=O)CN(CC)C(=O)[C@H]([C@@H](C)CC)NC(=O)[C@H](CC(C)C)N(C)C(=O)C[C@@H](C(=O)N2CCOCC2)N(C)C(=O)[C@H](C2CCCC2)N(C)C(=O)C2(CCCC2)NC(=O)[C@@H]2CC(C)(C)CN2C(=O)[C@H](CCc2ccc(C(F)(F)F)c(Cl)c2)NC(=O)CN(C)C(=O)[C@@H]1Cc1ccc(C(F)(F)F)cc1 [PP0450] ([NMeL]I[NEtG][Sar][NPrPhe(4-CF3)][Sar][hPhe(3-Cl-4-CF3)][Pro(4,4-Me2)][Ac5c][NMeGly(cPent)][NMeD]-Morpholide; lactam N-11) | B (a compound having 3 or more and less than 10 is denoted as B) | C (A compound having a KD ratio of 0.1 or more and less than 3 is denoted as C) |
| CCCN1C(=O)CN(C)C(=O)[C@@H]2CCN2C(=O)[C@H]([C@@H](C)CC)NC(=O)[C@H](CC(C)C)N(C)C(=O)C[C@@H](C(=O)N2CCOCC2)N(C)C(=O)[C@H](C2CCCC2)N(C)C(=O)C2(CCCC2)NC(=O)[C@@H]2CC(C)(C)CN2C(=O)[C@H](CCc2ccc(C(F)(F)F)c(Cl)c2)NC(=O)CN(C)C(=O)[C@@H]1Cc1ccc(C(F)(F)F)cc1 [PP0452] ([NMeL]I[Aze][Sar][NPrPhe(4-CF3)][Sar][hPhe(3-Cl-4-CF3)][Pro(4,4-Me2)][Ac5c][NMeGly(cPent)][NMeD]-Morpholide; lactam N-11) | B (a compound having 3 or more and less than 10 is denoted as B) | B (a compound having 3 or more and less than 10 is denoted as B) |
| CCCN1C(=O)CN(C)C(=O)[C@@H]2CCN2C(=O)[C@H]([C@@H](C)CC)NC(=O)[C@H](CC(C)C)N(C)C(=O)C[C@@H](C(=O)N2CCOCC2)N(C)C(=O)[C@H](C2CCCC2)N(C)C(=O)C2(CCCC2)NC(=O)[C@@H]2C[C@H](C)CN2C(=O)[C@H](CCc2ccc(C(F)(F)F)c(Cl)c2)NC(=O)CN(C)C(=O)[C@@H]1Cc1ccc(C(F)(F)F)cc1 [PP0453] ([NMeL]I[Aze][Sar][NPrPhe(4-CF3)][Sar][hPhe(3-Cl-4-CF3)][Pro(4S-Me)][Ac5c][NMeGly(cPent)][NMeD]-Morpholide; lactam N-11) | B (a compound having 3 or more and less than 10 is denoted as B) | C (A compound having a KD ratio of 0.1 or more and less than 3 is denoted as C) |
| CCCN1C(=O)[C@@H]2CCN2C(=O)[C@H](C)N(C)C(=O)[C@H]([C@@H](C)CC)NC(=O)[C@H](CC(C)C)N(C)C(=O)C[C@@H](C(=O)N2CCOCC2)N(C)C(=O)[C@H](C2CCCC2)N(C)C(=O)C2(CCCC2)NC(=O)[C@@H]2CC(C)(C)CN2C(=O)[C@H](CCc2ccc(C(F)(F)F)c(Cl)c2)NC(=O)CN(C)C(=O)[C@@H]1Cc1ccc(C(F)(F)F)cc1 [PP0454] ([NMeL]I[NMeA][Aze][NPrPhe(4-CF3)][Sar][hPhe(3-Cl-4-CF3)][Pro(4,4-Me2)][Ac5c][NMeGly(cPent)][NMeD]-Morpholide; lactam N-11) | C (A compound having a KD ratio of 0.1 or more and less than 3 is denoted as C) | C (A compound having a KD ratio of 0.1 or more and less than 3 is denoted as C) |
| CCCN1C(=O)[C@@H]2CCN2C(=O)CN(C)C(=O)[C@H]([C@@H](C)CC)NC(=O)[C@H](CC(C)C)N(C)C(=O)C[C@@H](C(=O)N2CCOCC2)N(C)C(=O)[C@H](C2CCCC2)N(C)C(=O)C2(CCCC2)NC(=O)[C@@H]2CC(C)(C)CN2C(=O)[C@H](CCc2ccc(C(F)(F)F)c(Cl)c2)NC(=O)CN(C)C(=O)[C@@H]1Cc1ccc(C(F)(F)F)cc1 [PP0456] ([NMeL]I[Sar][Aze][NPrPhe(4-CF3)][Sar][hPhe(3-Cl-4-CF3)][Pro(4,4-Me2)][Ac5c][NMeGly(cPent)][NMeD]-Morpholide; lactam N-11) | C (A compound having a KD ratio of 0.1 or more and less than 3 is denoted as C) | C (A compound having a KD ratio of 0.1 or more and less than 3 is denoted as C) |
| CCCN1C(=O)[C@@H]2CCN2C(=O)CN(C)C(=O)[C@H]([C@@H](C)CC)NC(=O)[C@H](CC(C)C)N(C)C(=O)C[C@@H](C(=O)N2CCOCC2)N(C)C(=O)[C@H](C2CCCC2)N(C)C(=O)C2(CCCC2)NC(=O)[C@@H]2C[C@H](C)CN2C(=O)[C@H](CCc2ccc(C(F)(F)F)c(Cl)c2)NC(=O)CN(C)C(=O)[C@@H]1Cc1ccc(C(F)(F)F)cc1 [PP0457] ([NMeL]I[Sar][Aze][NPrPhe(4-CF3)][Sar][hPhe(3-Cl-4-CF3)][Pro(4S-Me)][Ac5c][NMeGly(cPent)][NMeD]-Morpholide; lactam N-11) | C (A compound having a KD ratio of 0.1 or more and less than 3 is denoted as C) | B (a compound having 3 or more and less than 10 is denoted as B) |
| CC[C@H](C)[C@@H]1NC(=O)[C@H](CC(C)C)N(C)C(=O)C[C@@H](C(=O)N2CCOCC2)N(C)C(=O)[C@H](C2CCCC2)N(C)C(=O)C2(CCCC2)NC(=O)[C@@H]2CCCN2C(=O)[C@H](CCc2ccc(C(F)(F)F)c(Cl)c2)NC(=O)CN(C)C(=O)[C@H](Cc2ccc(C)cc2)N2CC=CC[C@@H](C2=O)N(C)C(=O)CN(C)C1=O [PP0460] | C (A compound having a KD ratio of 0.1 or more and less than 3 is denoted as C) | C (A compound having a KD ratio of 0.1 or more and less than 3 is denoted as C) |
| CC[C@H](C)[C@@H]1NC(=O)[C@H](CC(C)C)N(C)C(=O)C[C@@H](C(=O)N2CCOCC2)N(C)C(=O)[C@H](C2CCCC2)N(C)C(=O)C2(CCCC2)NC(=O)[C@@H]2CCCN2C(=O)[C@H](CCc2ccc(C(F)(F)F)c(Cl)c2)NC(=O)CN(C)C(=O)[C@H](Cc2ccc(C)cc2)N2CC/C=C\C[C@@H](C2=O)N(C)C(=O)CN(C)C1=O [PP0461] | A (a compound having 10 or more and less than 20 is denoted as A) | A (a compound having 10 or more and less than 20 is denoted as A) |
| CC[C@H](C)[C@@H]1NC(=O)[C@H](CC(C)C)N(C)C(=O)C[C@@H](C(=O)N2CCOCC2)N(C)C(=O)[C@H](C2CCCC2)N(C)C(=O)C2(CCCC2)NC(=O)[C@@H]2CCCN2C(=O)[C@H](CCc2ccc(C(F)(F)F)c(Cl)c2)NC(=O)CN(C)C(=O)[C@H](Cc2ccc(C(F)(F)F)cc2)N2CC=CC[C@@H](C2=O)N(C)C(=O)CN(C)C1=O [PP0462] | C (A compound having a KD ratio of 0.1 or more and less than 3 is denoted as C) | C (A compound having a KD ratio of 0.1 or more and less than 3 is denoted as C) |
